Reference: patent US6979686B1, “Substituted pyrazoles as p38 kinase inhibitors” (Pharmacia Corporation, priority 2001, dated 2005)

Columns and labels:
human p38 kinase alpha = biological target: T1, human p38 kinase alpha (Homo sapiens, UniProt Q16539); assay: p38 kinase in vitro assay, phosphorylation of biotinylated PHAS-I with 32P-ATP; format: biochemical; conditions: for IC50: in vitro P38-alpha kinase inhibition, read-out: P38 alpha kinase IC50
T1 construct: GST (N, cleaved yes); made in house; host or cells: E. coli DH10B
T1 sequence (Q16539 whole entry): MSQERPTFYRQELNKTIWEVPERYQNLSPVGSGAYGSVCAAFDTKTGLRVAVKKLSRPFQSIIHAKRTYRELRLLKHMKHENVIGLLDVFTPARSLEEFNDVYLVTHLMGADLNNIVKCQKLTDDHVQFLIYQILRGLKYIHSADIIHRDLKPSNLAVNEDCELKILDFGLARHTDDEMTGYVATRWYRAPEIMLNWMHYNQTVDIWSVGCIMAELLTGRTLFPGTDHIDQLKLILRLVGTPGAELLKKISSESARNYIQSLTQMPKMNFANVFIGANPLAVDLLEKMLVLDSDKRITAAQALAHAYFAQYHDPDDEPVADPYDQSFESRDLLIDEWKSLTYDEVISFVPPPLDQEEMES

[1] = tested on: TNF-α, U937 human histiocytic lymphoma cell line; assay: LPS stimulation of TNF production by U937 cells; format: cell-based; conditions: for IC50 / inhibition at 1 µM: Homo sapiens; for IC50: U-937, TNF production, human U937 cells stimulated with LPS, read-out: U937 Cell IC50; for inhibition at 1 µM: U-937, @ 1.0 uM, read-out: U937 Cell % inhib @ conc.; for inhibition at 1 µM / U937 Cell % inhib @ conc. (uM): TNF production, U937 cells stimulated with LPS; for U937 Cell % inhib @ conc. (uM): @ 1.0 uM
How it was run: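 U937 cells differentiated 24 h with 20 ng/ml PMA, rested 24-48 h, used at 2 million cells/ml. Compounds in 0.1% DMSO final; LPS (E. coli, 100 ng/ml final) stimulation for 4 h at 37° C. Released TNF-α measured by ELISA; IC50 (μM).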

| SMILES | IC50 (human p38 kinase alpha) [nM] | inhibition at 1 µM [1] [%] | P38 alpha kinase % inhib @ conc. (uM) (human p38 kinase alpha; @ 1.0 uM) [% @] | U937 Cell % inhib @ conc. (uM) [1] [% @] | also measured |
| --- | --- | --- | --- | --- | --- |
| CNC(=O)CCC(NC(=O)Nc1ccccc1F)c1[nH]nc(-c2ccc(F)cc2)c1-c1ccncc1 (stereo not shown) [Example B-0881] | 1360 |  |  |  | IC50 [1]: > 1000 nM |
| CNC(=O)CCC(NC(=O)Nc1c(C)cccc1C)c1[nH]nc(-c2ccc(F)cc2)c1-c1ccncc1 (stereo not shown) [Example B-0882] | 1480 | 9 |  |  |  |
| CCNC(=O)NC(CCC(=O)NC)c1[nH]nc(-c2ccc(F)cc2)c1-c1ccncc1 (stereo not shown) [Example B-0883] | 1060 |  |  |  | IC50 [1]: > 1000 nM |
| O=C(NCCc1[nH]nc(-c2ccc(F)cc2)c1-c1ccncc1)NC(=O)c1ccccc1 [Example B-0934] |  |  | 67.0 | 36.0 |  |
| O=C(NCCc1[nH]nc(-c2ccc(F)cc2)c1-c1ccncc1)Nc1ccc(Br)cc1 [Example B-0938] |  |  | 51.0 | 29.0 |  |
| O=C(NCCc1[nH]nc(-c2ccc(F)cc2)c1-c1ccncc1)NCc1ccccc1 [Example B-0939] |  |  | 78.0 | 14.0 |  |
| CCOC(=O)c1cccc(NC(=O)NCCc2[nH]nc(-c3ccc(F)cc3)c2-c2ccncc2)c1 [Example B-0942] |  |  | 82.0 | 2.0 |  |
| O=C(NCCc1[nH]nc(-c2ccc(F)cc2)c1-c1ccncc1)Nc1ccc(Cc2ccccc2)cc1 [Example B-0943] |  |  |  | 24.0 | P38 alpha kinase % inhib @ conc. (uM) (human p38 kinase alpha; @ 10.0 uM): 63.0% @ |
| COC(=O)c1ccccc1NC(=O)NCCc1[nH]nc(-c2ccc(F)cc2)c1-c1ccncc1 [Example B-0946] |  |  | 76.0 | 31.0 |  |
| CCOC(=O)C(NC(=O)NCCc1[nH]nc(-c2ccc(F)cc2)c1-c1ccncc1)C(C)C (stereo not shown) [Example B-0976] |  |  | 79.0 | 36.0 |  |
| COc1ccc(NC(=O)NCCc2[nH]nc(-c3ccc(F)cc3)c2-c2ccncc2)cc1 [Example B-0978] |  |  | 59.0 | 36.0 |  |
| O=C(NCCc1[nH]nc(-c2ccc(F)cc2)c1-c1ccncc1)Nc1cccc(Cl)c1Cl [Example B-0980] |  |  | 68.0 | 31.0 |  |
| COc1ccccc1C(=O)NCCc1[nH]nc(-c2ccc(F)cc2)c1-c1ccncc1 [Example B-0995] |  |  | 53.0 | 14.0 |  |
| O=C(NCCc1[nH]nc(-c2ccc(F)cc2)c1-c1ccncc1)c1ccc(F)c(F)c1F [Example B-0997] |  |  | 69.0 | 22.0 |  |
| CC(C)=CC(=O)NCCc1[nH]nc(-c2ccc(F)cc2)c1-c1ccncc1 [Example B-0998] |  |  | 67.0 | 25.0 |  |
| COc1ccc(CC(=O)NCCc2[nH]nc(-c3ccc(F)cc3)c2-c2ccncc2)cc1OC [Example B-0999] |  |  | 61.0 | 24.0 |  |
| COc1cccc(CC(=O)NCCc2[nH]nc(-c3ccc(F)cc3)c2-c2ccncc2)c1 [Example B-1001] |  |  | 63.0 | 31.0 |  |
| O=C(NCCc1[nH]nc(-c2ccc(F)cc2)c1-c1ccncc1)c1ccccc1 [Example B-1003] |  |  | 74.0 | 29.0 |  |
| O=S(=O)(NCCc1[nH]nc(-c2ccc(F)cc2)c1-c1ccncc1)c1ccc(F)cc1 [Example B-1013] |  |  | 85.0 | 7.0 |  |
| O=S(=O)(C=Cc1ccccc1)NCCc1[nH]nc(-c2ccc(F)cc2)c1-c1ccncc1 [Example B-1016] |  |  | 58.0 | 10.0 |  |
| O=S(=O)(NCCc1[nH]nc(-c2ccc(F)cc2)c1-c1ccncc1)c1ccccc1F [Example B-1020] |  |  | 87.0 | 36.0 |  |

| SMILES | IC50 (human p38 kinase alpha) [nM] | inhibition at 1 µM [1] [%] | P38 alpha kinase % inhib @ conc. (uM) (human p38 kinase alpha; @ 1.0 uM) [% @] | U937 Cell % inhib @ conc. (uM) [1] [% @] | also measured |
| --- | --- | --- | --- | --- | --- |
| Cc1ccc(S(=O)(=O)NCCc2[nH]nc(-c3ccc(F)cc3)c2-c2ccncc2)cc1 [Example B-1027] |  |  | 58.0 | 18.0 |  |
| C[C@@H](NC(=O)NCCc1[nH]nc(-c2ccc(F)cc2)c1-c1ccncc1)c1ccccc1 [Example B-1045] |  |  | 78.0 | 25.0 |  |
| CC(=O)Nc1ccc(S(=O)(=O)NCCc2[nH]nc(-c3ccc(F)cc3)c2-c2ccncc2)cc1 [Example B-1059] | 180 | 24 |  |  |  |
| O=S(=O)(NCCc1[nH]nc(-c2ccc(F)cc2)c1-c1ccncc1)c1ccc2ccccc2c1 [Example B-1068] | 480 | 24 |  |  |  |
| CN(C)c1cccc2c(S(=O)(=O)NCCc3[nH]nc(-c4ccc(F)cc4)c3-c3ccncc3)cccc12 [Example B-1072] | 380 | 28 |  |  |  |
| O=S(=O)(NCCc1[nH]nc(-c2ccc(F)cc2)c1-c1ccncc1)c1cccc(Cl)c1Cl [Example B-1073] | < 100 | 21 |  |  |  |
| Cc1c(Cl)cccc1S(=O)(=O)NCCc1[nH]nc(-c2ccc(F)cc2)c1-c1ccncc1 [Example B-1075] | 30 | 29 |  |  |  |
| O=S(=O)(NCCc1[nH]nc(-c2ccc(F)cc2)c1-c1ccncc1)c1ccc(Cl)cc1Cl [Example B-1076] | 80 | 31 |  |  |  |
| O=S(=O)(NCCc1[nH]nc(-c2ccc(F)cc2)c1-c1ccncc1)c1cc(Cl)c(Cl)s1 [Example B-1080] | 190 | 28 |  |  |  |
| CCCCOc1ccc(S(=O)(=O)NCCc2[nH]nc(-c3ccc(F)cc3)c2-c2ccncc2)cc1 [Example B-1084] | 430 | 29 |  |  |  |
| COc1ccc(OC)c(S(=O)(=O)NCCc2[nH]nc(-c3ccc(F)cc3)c2-c2ccncc2)c1 [Example B-1085] | < 100 | 29 |  |  |  |
| Cc1ccccc1C(=O)NCCc1[nH]nc(-c2ccc(F)cc2)c1-c1ccncc1 [Example B-1120] | 470 | 9 |  |  |  |
| O=C(NCCc1[nH]nc(-c2ccc(F)cc2)c1-c1ccncc1)c1ccc(Cl)cc1 [Example B-1121] | 3580 | 29 |  |  |  |
| O=C(NCCc1[nH]nc(-c2ccc(F)cc2)c1-c1ccncc1)c1cc(Cl)cc(Cl)c1 [Example B-1126] | 1500 |  |  |  | IC50 [1]: > 1000 nM |
| N#Cc1cccc(C(=O)NCCc2[nH]nc(-c3ccc(F)cc3)c2-c2ccncc2)c1 [Example B-1127] | 710 | 7 |  |  |  |
| O=C(NCCc1[nH]nc(-c2ccc(F)cc2)c1-c1ccncc1)c1cc(F)cc(F)c1 [Example B-1130] | 500 | 29 |  |  |  |
| O=C(NCCc1[nH]nc(-c2ccc(F)cc2)c1-c1ccncc1)c1cccc(Cl)c1Cl [Example B-1132] | 720 | 11 |  |  |  |
| O=C(NCCc1[nH]nc(-c2ccc(F)cc2)c1-c1ccncc1)c1cccc(C(F)(F)F)c1F [Example B-1138] | 1820 |  |  |  | IC50 [1]: > 1000 nM |
| O=C(NCCc1[nH]nc(-c2ccc(F)cc2)c1-c1ccncc1)c1ccc(F)cc1C(F)(F)F [Example B-1139] | 41 | 29 |  |  |  |
| O=C(NCCc1[nH]nc(-c2ccc(F)cc2)c1-c1ccncc1)c1ccc(C(F)(F)F)cc1 [Example B-1155] | 3220 | 30 |  |  |  |
